Experimental data taken from US12214015B2, “Use of c-type natriuretic peptide variants to treat osteoarthritis” (priority 2015, dated 2025).
Where no end group is shown, it is not given here.

Key:
[1] = biological target: T1, NPR-B (Homo sapiens, UniProt P20594); details: read-out: affinity to NPR-B; cited from earlier work
T1 sequence (P20594 23-1047): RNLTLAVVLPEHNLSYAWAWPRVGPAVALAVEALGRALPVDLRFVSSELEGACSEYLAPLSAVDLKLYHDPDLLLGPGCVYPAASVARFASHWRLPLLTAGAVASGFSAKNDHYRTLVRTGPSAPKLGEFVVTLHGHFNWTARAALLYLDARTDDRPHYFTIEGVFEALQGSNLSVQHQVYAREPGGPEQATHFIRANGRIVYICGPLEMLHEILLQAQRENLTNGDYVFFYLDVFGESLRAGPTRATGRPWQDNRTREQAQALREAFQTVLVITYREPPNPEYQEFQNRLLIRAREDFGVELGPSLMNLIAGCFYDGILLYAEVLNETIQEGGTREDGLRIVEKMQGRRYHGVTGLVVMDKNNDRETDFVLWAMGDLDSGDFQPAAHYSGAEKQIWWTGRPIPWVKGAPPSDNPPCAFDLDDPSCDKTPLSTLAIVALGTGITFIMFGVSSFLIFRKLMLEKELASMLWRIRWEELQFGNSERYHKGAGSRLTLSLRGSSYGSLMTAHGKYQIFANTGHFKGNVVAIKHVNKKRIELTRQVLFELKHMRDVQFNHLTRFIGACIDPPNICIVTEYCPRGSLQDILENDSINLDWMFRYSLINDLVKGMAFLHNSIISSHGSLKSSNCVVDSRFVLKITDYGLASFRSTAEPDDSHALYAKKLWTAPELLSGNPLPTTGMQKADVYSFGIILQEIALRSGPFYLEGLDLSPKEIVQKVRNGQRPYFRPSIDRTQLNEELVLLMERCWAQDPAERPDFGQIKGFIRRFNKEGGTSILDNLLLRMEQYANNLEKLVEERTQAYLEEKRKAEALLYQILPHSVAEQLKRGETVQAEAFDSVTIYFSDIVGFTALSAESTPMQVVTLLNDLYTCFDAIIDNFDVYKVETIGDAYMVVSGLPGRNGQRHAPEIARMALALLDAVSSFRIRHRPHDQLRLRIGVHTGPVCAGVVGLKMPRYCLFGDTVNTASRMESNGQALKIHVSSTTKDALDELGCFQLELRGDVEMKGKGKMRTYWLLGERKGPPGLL

[2] = biological target: NPR-C (Homo sapiens, UniProt P17342); details: read-out: affinity to NPR-C; cited from earlier work
[3] = biological target: NEP (Homo sapiens, UniProt P08473); details: NEP digestion for 2.5 minutes in vitro; Cys6-Phe7 and Gly8-Leu9 slightly most labile
[4] = clearance by NEP and NPR-C; cited from earlier work
[5] = biological target: T1, NPR-B; details: cited from earlier work
[6] = system: medial meniscal tear-induced osteoarthritis; experiment: Rat medial meniscal tear osteoarthritis model, knee histopathology (Example 2, IA or SC); format: in vivo
[7] = system: medial meniscal tear-induced osteoarthritis; experiment: Rat medial meniscal tear osteoarthritis model, knee histopathology (Example 1, IA dosing from Day 7); format: in vivo; details: for cartilage degeneration in the tibia: 3x/week for 3 weeks from Day 7, vs control rats
Experimental: A unilateral medial meniscal tear in 275-300 gram rats will result in rapidly progressive cartilage degeneration—characterized by chondrocyte and proteoglycan loss, fibrillation, osteophyte formation, and chondrocyte cloning. This model is performed by transection of the medial collateral ligament just below its attachment to the meniscus so that when the joint space opens, the meniscus is reflected toward the femur. The meniscus is cut at its narrowest point (away from the ossicles) taking care not to damage the tibial surface and making sure that the resulting transection produces separate, freely movable anterior and posterior meniscus halves.
Progressive cartilage degenerative changes occur and by 3-6 weeks post-surgery, tibial cartilage degeneration may be focally severe on the outer ⅓ of the tibia with degenerative changes of lesser severity in the middle and inner ⅓. Osteophytes are ultimately quite large (medial tibia) and progressively increase in size. The model is progressive and results in total cartilage loss (to eburnated bone) in […] in virtually all rats, with lesions that are reasonably consistent. […] Due to the rapid progression of cartilage degeneration, protective effects are not always apparent in the outer ⅓ of the tibial cartilage, although zonal analysis may reveal effects of treatment in the middle and inner ⅓. Substantial subchondral and epiphyseal bone changes occur in the medial tibia subjacent to the areas of greatest lesion severity. These range in magnitude and type from increased basophilia of the calcified cartilage layer with small fractures into subchondral bone to overt collapse of articular cartilage into areas of bone resorption in the epiphysis with surrounding sclerosis of bone. Therefore, this model offers the opportunity to evaluate not only chondroprotective effects of agents but also bone preserving activities. The model is of relatively short duration and animals are very consistent in their response to the surgery.
(§1) This rat model was used to determine the effect of CNP variants on slowing or repairing cartilage damage in osteoarthritis, where the CNP is delivered in response to joint injury or trauma. In this model a tear was introduced into the meniscus to provoke joint injury which results in cartilage degeneration and osteoarthritis (Janusz et al., Osteoarthritis Cartilage, 10:785-791, 2002). Male Lewis rats received a unilateral medial meniscectomy on Day 0; administration of control vehicle or the CNP variant Gly-CNP-37 began on Day 7; and the animals were euthanized on Day 29 for histopathological analysis of the affected joints. […] Therapeutic efficacy was evaluated by gait analysis and histopathological examination of chondrocyte death/cartilage degeneration in the knee.
In particular, surgery animals were anesthetized with isoflurane and the right knee and lower leg area were prepared for surgery. For the meniscal tear, a skin incision was made over the medial aspect of the knee and the medial collateral ligament was transected after being exposed by blunt dissection. The medial meniscus was cut through the full thickness to simulate a complete tear and the wound closed. Ninety minutes (90 min) post-surgery, animals were treated with a dose of Acetaminophen (100 mg/kg, PO) in 1% CMC (2 mL/kg, 50 mg/mL). A follow-on dose was given 24 hours post-surgery (as needed).
For histopathological analysis the operated joints were harvested from the euthanized rats. Following 4-6 days in 5% formic acid decalcifier, the operated joints are cut into two approximately equal halves in the frontal plane and embedded in paraffin. Sections were cut from each operated right knee at approximately 160 μm steps and stained with toluidine blue. […]

[8] = system: medial meniscal tear-induced osteoarthritis; experiment: Gait analysis in rat meniscal tear osteoarthritis model (Example 1); format: in vivo
Text: as §1
Gait analysis was performed by applying ink to the ventral surface of the foot and documenting weight bearing during movement (footprints) across paper. Rear feet of rats were placed in ink and then rats were placed on paper and allowed to walk the full length. Gait was scored visually using the criteria in Table 5 (descriptions refer to diseased/affected leg).

Sequence of NPR-C (P17342 27-541, species assumed): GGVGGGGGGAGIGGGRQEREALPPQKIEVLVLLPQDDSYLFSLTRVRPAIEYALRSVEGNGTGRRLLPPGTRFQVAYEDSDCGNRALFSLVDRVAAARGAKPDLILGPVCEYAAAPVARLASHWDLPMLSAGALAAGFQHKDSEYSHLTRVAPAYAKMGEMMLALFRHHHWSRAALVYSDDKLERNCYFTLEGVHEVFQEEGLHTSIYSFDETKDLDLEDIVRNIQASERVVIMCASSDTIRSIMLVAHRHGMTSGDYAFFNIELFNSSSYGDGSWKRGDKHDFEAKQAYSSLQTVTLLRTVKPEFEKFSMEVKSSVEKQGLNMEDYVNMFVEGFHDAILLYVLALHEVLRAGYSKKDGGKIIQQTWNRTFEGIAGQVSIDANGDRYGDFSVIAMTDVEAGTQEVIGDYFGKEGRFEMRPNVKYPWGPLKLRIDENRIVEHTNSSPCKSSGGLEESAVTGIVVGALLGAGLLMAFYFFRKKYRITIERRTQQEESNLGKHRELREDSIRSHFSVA
Sequence of NEP (P08473 whole entry): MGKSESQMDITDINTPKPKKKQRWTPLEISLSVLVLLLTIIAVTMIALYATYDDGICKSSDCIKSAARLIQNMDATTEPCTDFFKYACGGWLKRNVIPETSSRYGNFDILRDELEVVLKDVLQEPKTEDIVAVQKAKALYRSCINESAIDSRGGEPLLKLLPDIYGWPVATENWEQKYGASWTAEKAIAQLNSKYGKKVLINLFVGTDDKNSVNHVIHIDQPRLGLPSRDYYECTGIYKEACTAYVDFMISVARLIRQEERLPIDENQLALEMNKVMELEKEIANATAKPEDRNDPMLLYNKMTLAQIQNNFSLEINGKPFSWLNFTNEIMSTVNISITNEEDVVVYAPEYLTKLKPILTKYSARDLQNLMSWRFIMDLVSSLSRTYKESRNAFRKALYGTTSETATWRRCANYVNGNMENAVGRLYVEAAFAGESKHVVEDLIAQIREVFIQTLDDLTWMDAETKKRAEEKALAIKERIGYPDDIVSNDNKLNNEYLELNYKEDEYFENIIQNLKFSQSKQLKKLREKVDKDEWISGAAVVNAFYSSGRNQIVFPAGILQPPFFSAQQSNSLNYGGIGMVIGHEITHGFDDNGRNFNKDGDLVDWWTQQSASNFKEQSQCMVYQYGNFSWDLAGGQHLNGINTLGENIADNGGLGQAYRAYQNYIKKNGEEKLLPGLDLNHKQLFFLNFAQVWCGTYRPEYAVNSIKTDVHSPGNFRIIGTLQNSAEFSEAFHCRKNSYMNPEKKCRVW

Compound: CC[C@H](C)[C@@H]1NC(=O)[C@H](CCCNC(=N)N)NC(=O)[C@H](CC(=O)O)NC(=O)[C@H](CC(C)C)NC(=O)[C@H](CCCCN)NC(=O)[C@H](CC(C)C)NC(=O)CNC(=O)[C@H](Cc2ccccc2)NC(=O)[C@@H](NC(=O)CNC(=O)[C@H](CCCCN)NC(=O)[C@H](CO)NC(=O)[C@H](CC(C)C)NC(=O)CN)CSSC[C@@H](C(=O)O)NC(=O)CNC(=O)[C@H](CC(C)C)NC(=O)CNC(=O)[C@H](CO)NC(=O)[C@H](CCSC)NC(=O)[C@H](CO)NC(=O)CNC1=O [CNP-22]
- Kd [1]: 0.007 to 0.03 nM
- Kd [2]: 0.011 to 0.14 nM
- hydrolysis of NEP cleavage sites [3]: all possible sites were unexpectedly hydrolyzed
- half-life [4]: ~2.6 min

Compound: G19R mutation in CNP22: CNP22 with a G19R substitution (GLSKGCFGLKLDRIGSMSRLGC; ends and bridges not checked; cysteine pairing not given here; UniProt P23582 105-126, looked up, variant G19R)
- NPR-B signaling activity [5]: does not result in a significant loss

Compound: GQEHPNARKYKGANKKGLSKGCFGLKLDRIGSMSGLGC (ends and bridges not checked; cysteine pairing not given here) [Gly-CNP-37]
- Total Joint Score without Femur ([6]; 105 μg IA): significant reduction
- effects on histopathology lesions of medial meniscal tear-induced osteoarthritis ([6]; IA, Pro-Gly-CNP-37 35.5 and 105 μg, Gly-CNP-37 105 μg): significant beneficial effects
- medial growth plate thickness ([7]; 35.5 μg IA): a reduction in medial thickness, but not a significant reduction
- Total Joint Score without Femur ([7]; 35.5 μg/dose IA): improved Total Joint Score without Femur, albeit to a lesser extent as compared to the higher dose
- damage to the calcified cartilage and subchondral bone ([7]; 35.5 μg/dose IA): reduced damage to the calcified cartilage and subchondral bone, but to a lesser extent than the higher dose
- cartilage degeneration in the tibia ([7]; 35.5 μg/dose IA): significant reduction
- medial growth plate thickness ([7]; 110 μg IA): significantly reduced
- Total Joint Score without Femur ([7]; 110 μg/dose IA): significantly reduced
- cartilage degeneration in the tibia ([7]; 110 μg/dose IA): significant reduction
- reduction of tibial osteophyte measurement ([7]; 110 μg/dose IA, p<0.05): approximately 24%
- reduction of tibial osteophyte score ([7]; 110 μg/dose IA, p<0.05): approximately 34%
- damage to the calcified cartilage and subchondral bone, score ([7]; 110 μg/dose IA, vehicle approximately 2.4): ~1.3
- improvement in substantial tibial cartilage degeneration (width) ([7]; Gly-CNP-37 treated animals (IA)): greater than 50%
- depth ratio (lesion depth / total depth), medial tibia ([7]; Gly-CNP-37 treated groups (IA) vs vehicle): improved
- Total Joint Score with Femur ([7]; both doses IA): decreases total joint score at both doses, but not to a significant level
- medial tibial subchondral/epiphyseal trabecular bone thickening/sclerosis ([7]; both doses IA vs vehicle, not significant): observable decrease
- growth plate thickness, medial minus lateral difference ([7]; higher dose IA): significantly reduced
- collagen damage across the medial tibial plateau ([7]; lower and higher doses IA vs untreated controls): fewer areas with severe, marked and moderate degeneration
- growth plate thickness, medial minus lateral difference ([7]; lower dose IA): reduced thickness of the growth plate, but not to the same extent as the higher dose
- width of the cartilage affected by any degeneration ([7]; treated groups (IA) vs vehicle): improved
- gait score Area Under the Curve (AUC) ([8]; higher dose IA): gait score being lower for both treated populations as compared to the untreated controls
- mobility and gait (gait score) ([8]; higher or lower dose IA, approximately day 15 to day 28): improvement in mobility and gait
- gait score Area Under the Curve (AUC) ([8]; lower dose IA): decreased gait score to a greater extent than the higher CNP dose
